# Measurements from patent publication US20250092001A1, “NOVEL EXCITATORY AMINO ACID GLUTAMATE TRANSPORT MODULATORS AND METHODS USING THE SAME” (Drexel University, priority 2022, published 2025).
# What was measured:
# [1] = tested on: NR2A, NR2B, NR1; experiment: Western blot of cortex and striatum of treated PD rats: NMDA receptor subunits; format: in vivo, rat
# Protocol: Cortex and striatum were separately collected, and homogenates were prepared. Homogenates were centrifuged to obtain the protein extract in membrane and cytoplasmic fraction. Protein was estimated for each individual samples. Protein lysates were mixed with 6× loading buffer (5:1 ratio) and were heated (95° C. for 5 min). 20 μg protein was loaded to Tris-Glycine Mini gel for separation at […] for 2 h. Separated proteins were transferred to a PVDF membrane. 3% BSA was used for blocking the nontarget proteins to avoid noise. Membrane was incubated with primary Ab overnight at 4° C. followed by secondary Ab incubation for 3 h at room temperature. The protein bands were detected using ECL methods. The bands were quantified using Image J software.
# [2] = tested on: Drosophila model of Huntington's disease; experiment: Larval olfactory associative learning test; format: in vivo; conditions: Elav x Htt larvae; 3.53 nM GT467, […] GT511
# Protocol: FIG. 7A illustrates certain aspects of a larval olfactory associative learning used to test learning and memory. In FIG. 7A, larvae were trained with either a reinforcer solution containing sucrose (“LIN/SUC”) or a control of distilled water (“LIN/DW”). The trained larvae were then transferred to a dish having test odorant placed on one side and a control on the opposite side. […] The ΔRI (difference between LIN/SUC and LIN/DW performance scores) were then calculated for the high performers (FIG. 7B), low performers (FIG. 7C) and non-performers (FIG. 7D). […] Referring to FIG. 7A, Drosophila larvae were trained with either a reinforcer solution containing sucrose (“LIN/SUC”) or a control of distilled water (“LIN/DW”). The trained larvae were then transferred to a dish having test odorant placed on one side and a control on the opposite side. The ΔRI were then calculated for the high performers (FIG. 7B), low performers (FIG. 7C) and non-performers (FIG. 7D).
# [3] = tested on: R6/2 mice (Huntington disease model); experiment: Open field locomotion test; format: in vivo, mouse; conditions: GTS467 2, 4, and 10 mg/kg
# Protocol: FIG. 9A depicts the results of a locomotion test. In the locomotion test of FIG. 9A, wildtype and R6/2 mice treated with vehicle or different doses of GTS467 (2, 4, and 10 mg/kg) or ceftriaxone (200 mg/kg) were subjected to the open field test to evaluate their locomotor abilities in a 44×44 cm and 43×43 cm square open field arena. Animals were placed individually in the open field arena and behavior was recorded for a period of 5 minutes under dim light and low noise conditions. Animal behavior was recorded using an overhead camera and the distance moved was recorded and quantified using the Noldus ethovision XT-14 software. FIG. 9B depicts the results of a memory task test. Referring to FIG. 9B, to test for memory impairment a novel object recognition assay was performed. A 44×44 cm square shaped open field arena was used to perform this test at week 12 and week 15. The behavioral evaluation was performed in 2 sets, each set having equal number of animals. […] The behavior was recorded under dim light and low noise conditions using an overhead camera. Cumulative duration with both the objects, total object exploration (sec), distance travelled (cm) was quantified using the Noldus ethovision XT 14 software. […]
smiles,measurement,setting,value
"COc1ccc(NC(=O)C(=O)NCC(c2ccccc2)N2CCN(C)CC2)cc1 (stereo not shown) [GT467, N1-(4-methoxyphenyl)-N2-(2-(4-methylpiperazin-1-yl)-2-phenylethyl)oxalamide]",NR1 expression,[1]; cortex (CRTX),reduced in CRTX
same,"NR2A, 2B and NR1 expressions",[1]; synaptic level,"elevation of NR2A, 2B and NR1 expressions"
same,Olfactory learning performance (ΔRI),[2],improved significantly
same,Distance moved,[3],significantly increased
